{"source": "patent US20240335395A1", "about": "“COMPOSITIONS AND METHODS FOR PREVENTING AND/OR TREATING DISEASE ASSOCIATED WITH IL-23 EXPRESSION” (ALLSPIM, priority 2021, published 2024)", "key": {"IL-1ß": {"system": "IL-1ß", "experiment": "MSU-induced IL-1ß in knee joint tissue (multiplex microassay)", "format": "in vivo, mouse", "conditions": "2,4-D 100 mg/kg, CLC 1 mg/kg, DEX 0.5 mg/kg", "procedure": "Mice (six per group) were treated with 2,4-D (100 mg/kg or 20 mg/kg, i.p.), CLC (1 mg/kg or 0.2 mg/kg, i.p.), DEX (0.5 mg/kg or 0.1 mg/kg, i.p.), or vehicle (20% polyoxyethylenesorbitan monooleate (Tween 80) plus PBS) 30 min before intra-articular stimulus with MSU (100 μg/10 μL, i.a.). Six mice with intra-articular injection with PBS alone served as a negative control.\nInduction of MSU-Induced Knee Joint Inflammation. Male ICR (CD-1) mice (35-45 g, 10-12 weeks) were purchased from VitalRiver Inc (Beijing, China) and were kept in an animal care facility under controlled temperature of 21±1° C., humidity, and on a light/dark cycle, with ad libitum access to water and standard laboratory chow diet. Animal care and handling procedures were approved by the Animal Ethics Committee of GZUCM (Guangzhou University of Chinese Medicine). All efforts were made to minimize animal suffering and to reduce the number of animals used. Joint inflammation was induced by the intra-articular (i.a.) administration of MSU (200 μg/20 μl) into the right and left knee joints of mice under inhaled 3% isoflurane anesthesia. Control animals received an injection (i.a.) of sterile PBS (20 μL).\nCytokine Measurement. Mice were anesthetized and sacrificed. Knee joints were collected and frozen in liquid nitrogen. Samples were then homogenized in 500 μl of buffer containing protease inhibitors, centrifuged (3600 rpm, 4° C., 15 min) and supernatants were used to determine Th1/Th2/Th17 cytokine levels using a multiplex microassay (Qantibody® mouse TH17 Array 1 kit, Cat. No.: QAM-TH17-1; RayBiotech, Norcross, GA). Results were expressed as picograms (pg) of cytokine/mg of tissue.\nStatistical Analysis. […] For in vitro experiments, microassays were performed in quadruplicate. p<0.05 was considered significant (*p<0.05, **p<0.01, ***p<0.001)."}, "[1]": {"system": "IL-17/IL-23 and TNF signaling pathway-associated cytokine genes and chemokine genes", "experiment": "Transcription of IL-17/IL-23 and TNF signature genes in LPS-stimulated THP-1 cells (qPCR)", "format": "cell-based, human", "conditions": "2 h; 2,4-D 5-20 μM, DEX 20-80 ng/ml", "procedure": "Sample Collection and Preparation. THP-1 cells, a human leukemia monocyte-derived cell line, have been widely used as a model to study the modulation of the immune response and the function of monocytes and monocyte-derived macrophages. Here, lipopolysaccharide (LPS)-stimulated THP-1 cells were used as a model to study the cytokine storm in vitro (Chanput et al., 2014). THP-1 cells (purchased from American Type Culture Collection, Rockville, MD) were grown in RPMI 1640 culture medium (Gibco) supplemented with 10% fetal bovine serum (FBS) (Gibco, UK), 0.05 mM 2-mercaptoethanol, and 1% penicillin/streptomycin (Invitrogen) at 37° C. in 5% CO2 in a humidified incubator. Cultured cells were plated into culture plates in appropriate volumes with a cell density of 5×10^5 cells/ml. 2,4-D was purchased from Wuhan ChemFaces Biochemical Co., Ltd (Hubei, China) and tested for cytotoxicity in THP-1 cells overnight using a commercial MTT Cell Proliferation and Cytotoxicity Assay Kit (Beyotime, Shanghai, China). […]\nReal-Time Quantitative PCR. Real-time quantitative PCR was performed in triplicate using the TB Green qPCR master mix (Takara Biomedical Technology Co., Ltd, Dalian, China) on an ABI 7500 Real-Time PCR System (Thermo, USA). […] The ΔΔCT method was used to quantify relative mRNA levels as described above in Example 1 (Applied Biosystems). Data are expressed as mean±SD. […]"}}}
{"smiles": "COc1cc(O)c(OC)c(O)c1C(=O)/C=C/c1ccccc1", "note": "[2,4-D, 2′,4′-dihydroxy-3′,6′-dimethoxychalcone]", "values": [{"measurement": "decrease of IL-1ß in knee joint tissue", "setting": "IL-1ß", "value": 5.3, "unit": "fold"}, {"measurement": "suppression of transcription of IL-17/IL-23 and TNF signatures", "setting": "[1]", "value": "63-143 fold"}]}
